Data from patent US9464084B2, “P2X7 modulators” (Janssen Pharmaceutica NV, priority 2013, dated 2016).

What was measured:
rat P2X7 = rat P2X7 (Rattus norvegicus (Rat), UniProt Q64663); assay: Ca2+ flux (FLIPR) in 1321N1 cells expressing recombinant rat P2X7 channel; type: cell-based; details: 250 μM BzATP;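 also: Calcium-4 dye fluorescence change read 180 s after agonist addition, following 30 min cell preincubation with test compound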
Method: (§1) Cells were seeded at a density of 25000 cells/well (96-well clear bottom black walled plates) in 100 μl volume/well. On the day of the experiment, cell plates were washed with assay buffer, containing (in mM): 130 NaCl, 2 KCl, 1 CaCl2, 1 MgCl2, 10 HEPES, 5 glucose; pH 7.40 and 300 mOs. After the wash, cells were loaded with the Calcium-4 dye (Molecular Device) and incubated in the dark for 60 minutes. Test compounds were prepared at 250× the test concentration in neat DMSO. Intermediate 96-well compound plates were prepared by transferring 1.2 μL of the compound into 300 μL of assay buffer. A further 3× dilution occurred when transferring 50 μL/well of the compound plate to 100 μL/well in the cell plate. Cells were incubated with test compounds and dye for 30 minutes. […] The fluorescence change was measured 180 seconds after adding the agonist.

P2X7 [1] = target: T1, P2X7 (Homo sapiens (Human), UniProt Q99572); assay: Radioligand binding, tritiated A-804598, human P2X7-1321N1 cell membranes; details: 1 hour at 4° C.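 Also: ki obtained from the binding IC50 after correction for tracer concentration and tracer affinity.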
Method: On the day of the experiment, cell membrane preparations were made according to standard published methods. […] The assay was terminated by filtration (GF/B filters pre-soaked with 0.3% PEI) and washed with washing buffer (Tris-HCl 50 mM). The IC50 generated in the binding assay was corrected for tracer concentration and affinity of the tracer to derive at the affinity (Ki) of the test compounds.

P2X7 [2] = target: T1, P2X7; assay: Ca2+ flux (FLIPR) in 1321N1 cells expressing recombinant human P2X7 channel; type: cell-based; details: 250 μM BzATP;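 also: Calcium-4 dye-loaded cells exposed to compound for 30 min before agonist addition, fluorescence change read 180 s after agonist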
Method: as §1

P2X7 [3] = target: T1, P2X7; assay: P2X7 antagonism in human PBMCs (LPS + Bz-ATP induced IL-1β release, ELISA); type: cell-based; details: LPS 30 ng/ml, Bz-ATP 0.5 mM; for PBMC 10 μM (% control): compound 10 μM; for PBMC 1 μM (% control): compound 1 μM;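 as to all read-outs here: PBMCs from donor human blood, with a further 1.5 h incubation of the cells in the assay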

T1 sequence (Q99572 whole entry): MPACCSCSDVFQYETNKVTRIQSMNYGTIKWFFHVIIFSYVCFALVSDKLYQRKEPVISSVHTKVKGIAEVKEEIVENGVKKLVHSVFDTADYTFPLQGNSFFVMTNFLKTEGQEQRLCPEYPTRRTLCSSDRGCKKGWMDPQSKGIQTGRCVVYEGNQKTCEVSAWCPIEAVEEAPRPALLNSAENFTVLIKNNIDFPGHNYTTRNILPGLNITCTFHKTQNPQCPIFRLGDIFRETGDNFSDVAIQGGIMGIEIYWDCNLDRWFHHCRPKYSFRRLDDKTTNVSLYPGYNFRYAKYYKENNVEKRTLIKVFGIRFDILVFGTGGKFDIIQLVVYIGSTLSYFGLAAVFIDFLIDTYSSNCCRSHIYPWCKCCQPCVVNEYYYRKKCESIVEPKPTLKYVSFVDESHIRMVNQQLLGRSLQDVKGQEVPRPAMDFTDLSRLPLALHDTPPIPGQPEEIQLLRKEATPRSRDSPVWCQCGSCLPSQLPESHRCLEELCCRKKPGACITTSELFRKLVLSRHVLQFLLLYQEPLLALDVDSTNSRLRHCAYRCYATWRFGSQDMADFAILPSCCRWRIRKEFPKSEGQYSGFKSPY
rat P2X7, sequence (Q64663 whole entry): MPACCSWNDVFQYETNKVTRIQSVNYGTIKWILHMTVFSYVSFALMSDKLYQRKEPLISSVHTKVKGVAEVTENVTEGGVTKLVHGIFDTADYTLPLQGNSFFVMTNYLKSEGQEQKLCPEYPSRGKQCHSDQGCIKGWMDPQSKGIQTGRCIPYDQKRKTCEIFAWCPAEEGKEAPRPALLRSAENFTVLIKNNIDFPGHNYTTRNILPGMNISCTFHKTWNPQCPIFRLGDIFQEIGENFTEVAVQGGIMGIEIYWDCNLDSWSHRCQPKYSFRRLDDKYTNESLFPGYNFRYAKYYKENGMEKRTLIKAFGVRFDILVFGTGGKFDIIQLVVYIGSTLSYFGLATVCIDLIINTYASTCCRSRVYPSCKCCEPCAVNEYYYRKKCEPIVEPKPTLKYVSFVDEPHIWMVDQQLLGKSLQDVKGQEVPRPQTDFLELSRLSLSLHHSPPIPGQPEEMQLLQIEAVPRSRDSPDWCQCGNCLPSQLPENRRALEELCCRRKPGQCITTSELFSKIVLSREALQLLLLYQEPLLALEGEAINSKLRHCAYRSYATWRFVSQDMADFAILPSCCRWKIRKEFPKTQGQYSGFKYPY

| IC50 (rat P2X7) [nM] | Ki (P2X7 [1]) [nM] | IC50 (P2X7 [2]) [nM] | PBMC 10 μM (% control) (P2X7 [3]) | PBMC 1 μM (% control) (P2X7 [3]) | Compound |
| --- | --- | --- | --- | --- | --- |
| 14.3 | 31.6 | 11.6 | −2.8 |  | Cc1cccc(-n2nnc3c2CCN(C(=O)c2cccc(C(F)(F)F)c2Cl)C3C)n1 (stereo not shown) [Example 302, (2-chloro-3-(trifluoromethyl)phenyl)(4-methyl-1-(6-methylpyridin-2-yl)-6,7-dihydro-1H-[1,2,3]triazolo[4,5-c]pyridin-5(4H)-yl)methanone] |
| 438 | 11.5 | 8.6 | −16.9 |  | CC1c2nnn(-c3cnccn3)c2CCN1C(=O)c1ccc(Cl)cc1Cl (stereo not shown) [Example 279, (2,4-dichlorophenyl)(4-methyl-1-(pyrazin-2-yl)-6,7-dihydro-1H-[1,2,3]triazolo[4,5-c]pyridin-5(4H)-yl)methanone] |
| 12.6 | 20 | 12.7 | 5.8 |  | CC1Cc2c(-c3ccnn3C)nn(C)c2CN1C(=O)c1cccc(C(F)(F)F)c1Cl (stereo not shown) [Example 266, (2-chloro-3-(trifluoromethyl)phenyl)(1,5-dimethyl-3-(1-methyl-1H-pyrazol-5-yl)-4,5-dihydro-1H-pyrazolo[3,4-c]pyridin-6(7H)-yl)methanone] |
| 673 | 24.5 | 46.9 | −8.3 |  | CC1c2nnn(-c3ncccn3)c2CCN1C(=O)c1ccc(Cl)cc1F (stereo not shown) [Example 275, (4-chloro-2-fluorophenyl)(4-methyl-1-(pyrimidin-2-yl)-6,7-dihydro-1H-[1,2,3]triazolo[4,5-c]pyridin-5(4H)-yl)methanone] |
| 86.5 | 31.6 | 6.2 |  | 23.2 | CC1c2nnn(-c3ncccn3)c2C=CN1C(=O)c1cccc(C(F)(F)F)c1Cl (stereo not shown) [Example 79, 5-{[2-Chloro-3-(trifluoromethyl)phenyl]carbonyl}-4-methyl-1-pyrimidin-2-yl-4,5-dihydro-1H-[1,2,3]triazolo[4,5-c]pyridine] |
| 548 | 14.1 | 6.6 | 32.5 |  | O=C(c1cccc(C(F)(F)F)c1Cl)N1CCc2c(-c3ncccn3)n[nH]c2C1 [Example 98, 6-{[2-Chloro-3-(trifluoromethyl)phenyl]carbonyl}-3-pyrimidin-2-yl-4,5,6,7-tetrahydro-2H-pyrazolo[3,4-c]pyridine] |
| 2070 | 38 | 79.8 |  | 34.7 | CCOC(=O)C1c2ncn(-c3cnccn3)c2CCN1C(=O)c1cccc(Cl)c1Cl (stereo not shown) [Example 29, Ethyl 5-[(2,3-dichlorophenyl)carbonyl]-1-pyrazin-2-yl-4,5,6,7-tetrahydro-1H-imidazo[4,5-c]pyridine-4-carboxylate] |
| 973 | 29.5 | 10.3 |  | 13.3 | O=C(c1cccc(C(F)(F)F)c1Cl)N1C=Cc2c(nnn2-c2ccccn2)C1 [Example 90, 5-{[2-Chloro-3-(trifluoromethyl)phenyl]carbonyl}-1-pyridin-2-yl-4,5-dihydro-1H-[1,2,3]triazolo[4,5-c]pyridine] |
| 123 | 31.6 | 12.4 | 10.8 |  | O=C(c1cccc(C(F)(F)F)c1Cl)N1CCc2c(-c3ccc(F)cn3)n[nH]c2C1 [Example 94, 6-{[2-Chloro-3-(trifluoromethyl)phenyl]carbonyl}-3-(5-fluoropyridin-2-yl)-4,5,6,7-tetrahydro-2H-pyrazolo[3,4-c]pyridine] |
| 179 | 14.8 | 2.5 | 3.6 |  | O=C(c1cccc(C(F)(F)F)c1Cl)N1CCc2c(-c3cccnc3)n[nH]c2C1 [Example 96, 6-{[2-Chloro-3-(trifluoromethyl)phenyl]carbonyl}-3-pyridin-3-yl-4,5,6,7-tetrahydro-2H-pyrazolo[3,4-c]pyridine] |
| 1610 | 50.1 | 205 |  | 8.9 | O=C(c1ccnc(Cl)c1Cl)N1CCc2c(-c3ccccc3)n[nH]c2C1 [Example 104, 6-[(2,3-Dichloropyridin-4-yl)carbonyl]-3-phenyl-4,5,6,7-tetrahydro-1H-pyrazolo[3,4-c]pyridine] |
| 3020 | 100 | 622 | −7.6 |  | O=C(c1ccc(Cl)cc1F)N1CCc2c(nnn2-c2cnccn2)C1 [Example 272, (4-chloro-2-fluorophenyl)(1-(pyrazin-2-yl)-6,7-dihydro-1H-[1,2,3]triazolo[4,5-c]pyridin-5(4H)-yl)methanone] |
| 163 | 2.3 | 3.1 | −1.9 |  | Cc1c(C(=O)N2CCc3c(nnn3-c3ncccn3)C2)cccc1C(F)(F)F [Example 281, (2-methyl-3-(trifluoromethyl)phenyl)(1-(pyrimidin-2-yl)-6,7-dihydro-1H-[1,2,3]triazolo[4,5-c]pyridin-5(4H)-yl)methanone] |
| 89.1 | 39.8 | 22.1 | 9.2 |  | Cn1ccc(-n2nnc3c2CCN(C(=O)c2cccc(C(F)(F)F)c2Cl)C3)n1 [Example 127, (2-Chloro-3-(trifluoromethyl)phenyl)(1-(1-methyl-1H-pyrazol-3-yl)-6,7-dihydro-1H-[1,2,3]triazolo[4,5-c]pyridin-5(4H)-yl)methanone] |
| 501 | 100 | 63.1 |  | 57.7 | O=C(c1cccc(C(F)(F)F)c1Cl)N1CCc2[nH]nnc2C1c1ccccc1 (stereo not shown) [Example 78, 5-{[2-Chloro-3-(trifluoromethyl)phenyl]carbonyl}-4-phenyl-4,5,6,7-tetrahydro-1H-[1,2,3]triazolo[4,5-c]pyridine] |
| 92.3 | 12.6 | 7.2 | −19.5 |  | Cc1c(C(=O)N2CCc3c(nnn3-c3cnccn3)C2C)cccc1C(F)(F)F (stereo not shown) [Example 278, (4-methyl-1-(pyrazin-2-yl)-6,7-dihydro-1H-[1,2,3]triazolo[4,5-c]pyridin-5(4H)-yl)(2-methyl-3-(trifluoromethyl)phenyl)methanone] |
| 154 | 57.5 | 17.3 | 7.9 |  | CC1c2nnn(-c3ncccc3F)c2C=CN1C(=O)c1cccc(C(F)(F)F)c1Cl (stereo not shown) [Example 82, 5-{[2-Chloro-3-(trifluoromethyl)phenyl]carbonyl}-1-(3-fluoropyridin-2-yl)-4-methyl-4,5-dihydro-1H-[1,2,3]triazolo[4,5-c]pyridine] |
| 6530 | 174 | 230 | −3.1 |  | CC1CN(C(=O)c2cccc(C(F)(F)F)c2Cl)Cc2nnn(-c3ccc(F)cc3)c21 (stereo not shown) [Example 246, (2-Chloro-3-(trifluoromethyl)phenyl)(1-(4-fluorophenyl)-7-methyl-6,7-dihydro-1H-[1,2,3]triazolo[4,5-c]pyridin-5(4H)-yl)methanone] |
| 259 | 126 | 16.7 |  | 11.3 | CCC1c2ncn(-c3cnccn3)c2C=CN1C(=O)c1cccc(C(F)(F)F)c1Cl (stereo not shown) [Example 55, 5-{[2-Chloro-3-(trifluoromethyl)phenyl]carbonyl}-4-ethyl-1-pyrazin-2-yl-4,5-dihydro-1H-imidazo[4,5-c]pyridine] |
| 22.3 | 28.2 | 18.8 | −0.8 |  | Cc1ccnc(-n2nnc3c2CCN(C(=O)c2cccc(C(F)(F)F)c2Cl)C3C)n1 (stereo not shown) [Example 252, (2-Chloro-3-(trifluoromethyl)phenyl)(4-methyl-1-(4-methylpyrimidin-2-yl)-6,7-dihydro-1H-[1,2,3]triazolo[4,5-c]pyridin-5(4H)-yl)methanone] |
| 2290 | 20 | 4.5 | 12.7 |  | O=C(c1cccc(C(F)(F)F)c1Cl)N1CCc2c(-c3cnccn3)n[nH]c2C1 [Example 97, 6-{[2-Chloro-3-(trifluoromethyl)phenyl]carbonyl}-3-pyrazin-2-yl-4,5,6,7-tetrahydro-2H-pyrazolo[3,4-c]pyridine] |
| 869 | 5.8 | 6.4 | −0.9 |  | Cc1c(C(=O)N2CCc3c(nnn3-c3cnccn3)C2)cccc1C(F)(F)F [Example 276, (2-methyl-3-(trifluoromethyl)phenyl)(1-(pyrazin-2-yl)-6,7-dihydro-1H-[1,2,3]triazolo[4,5-c]pyridin-5(4H)-yl)methanone] |
| 1680 | 50.1 | 3.3 | 4.2 |  | CC1c2nnn(-c3ncc(F)cn3)c2CCN1C(=O)c1cccc(Cl)c1Cl (stereo not shown) [Example 174, (2,3-Dichlorophenyl)(1-(5-fluoropyrimidin-2-yl)-4-methyl-6,7-dihydro-1H-[1,2,3]triazolo[4,5-c]pyridin-5(4H)-yl)methanone] |
| 2070 | 100 | 161 | −7.3 |  | CC1CN(C(=O)c2cccc(C(F)(F)F)c2Cl)Cc2nnn(-c3ccccc3)c21 (stereo not shown) [Example 245, (2-Chloro-3-(trifluoromethyl)phenyl)(7-methyl-1-phenyl-6,7-dihydro-1H-[1,2,3]triazolo[4,5-c]pyridin-5(4H)-yl)methanone] |

| Compound | IC50 (rat P2X7) [nM] | Ki (P2X7 [1]) [nM] | IC50 (P2X7 [2]) [nM] | PBMC 10 μM (% control) (P2X7 [3]) | PBMC 1 μM (% control) (P2X7 [3]) |
| --- | --- | --- | --- | --- | --- |
| C[C@H]1c2nnn(-c3cncnc3)c2CCN1C(=O)c1cccc(C(F)(F)F)c1Cl [Example 333, (S)-(2-chloro-3-(trifluoromethyl)phenyl)(4-methyl-1-(pyrimidin-5-yl)-6,7-dihydro-1H-[1,2,3]triazolo[4,5-c]pyridin-5(4H)-yl)methanone] | > 10000 | 63.1 | 101 | 6.9 |  |
